Measurements: ChEMBL document CHEMBL3632555, “Design, synthesis and biological evaluation of novel 1,2,4-triazolo [3,4-b][1,3,4] thiadiazines bearing furan and thiophene nucleus” (Eur J Med Chem, 2015)

Tests used:
HepG2 [1] = assay: Cytotoxicity against human HepG2 cells after 48 hrs by MTT assay; type: functional, cell-based; details: HepG2, 48 h
A549 [2] = assay: Cytotoxicity against human A549 cells after 48 hrs by MTT assay; type: functional, cell-based; details: A549, 48 h
PC-3 [3] = assay: Cytotoxicity against human PC3 cells after 48 hrs by MTT assay; type: functional, cell-based; details: PC-3, 48 h
MCF7 = assay: Cytotoxicity against human MCF7 cells after 48 hrs by MTT assay; type: functional, cell-based; details: MCF7, 48 h
PC-3 [4] = assay: Potency index, ratio of IC50 for fluorouracil to IC50 for test compound for human PC3 cells; type: functional
HepG2 [5] = assay: Potency index, ratio of IC50 for fluorouracil to IC50 for test compound for human HepG2 cells; type: functional
PC-3 [6] = assay: Cell cycle arrest in human PC3 cells assessed as accumulation at G2/M phase at 8 uM after 48 hrs by flow cytometry (Rvb=16.72%); type: functional
PC-3 [7] = assay: Cell cycle arrest in human PC3 cells assessed as accumulation at G0/G1 phase at 8 uM after 48 hrs by flow cytometry (Rvb=60.55%); type: functional
PC-3 [8] = assay: Cell cycle arrest in human PC3 cells assessed as accumulation at Sub-G1 phase at 8 uM after 48 hrs by flow cytometry (Rvb=0.37%); type: functional
PC-3 [9] = assay: Cell cycle arrest in human PC3 cells assessed as accumulation at G2/M phase at 2 uM after 48 hrs by flow cytometry (Rvb=16.72%); type: functional
PC-3 [10] = assay: Cell cycle arrest in human PC3 cells assessed as accumulation at Sub-G1 phase at 4 uM after 48 hrs by flow cytometry (Rvb=0.37%); type: functional
PC-3 [11] = assay: Cell cycle arrest in human PC3 cells assessed as accumulation at G0/G1 phase at 4 uM after 48 hrs by flow cytometry (Rvb=60.55%); type: functional
PC-3 [12] = assay: Cell cycle arrest in human PC3 cells assessed as accumulation at Sub-G1 phase at 2 uM after 48 hrs by flow cytometry (Rvb=0.37%); type: functional
PC-3 [13] = assay: Cell cycle arrest in human PC3 cells assessed as accumulation at S phase at 8 uM after 48 hrs by flow cytometry (Rvb=21.10%); type: functional
PC-3 [14] = assay: Cell cycle arrest in human PC3 cells assessed as accumulation at S phase at 2 uM after 48 hrs by flow cytometry (Rvb=21.10%); type: functional
PC-3 [15] = assay: Cell cycle arrest in human PC3 cells assessed as accumulation at G2/M phase after 48 hrs by flow cytometry; type: functional, cell-based
A549 [16] = assay: Potency index, ratio of IC50 for fluorouracil to IC50 for test compound for human A549 cells; type: functional
PC-3 [17] = assay: Cell cycle arrest in human PC3 cells assessed as accumulation at S phase at 4 uM after 48 hrs by flow cytometry (Rvb=21.10%); type: functional
PC-3 [18] = assay: Cell cycle arrest in human PC3 cells assessed as accumulation at G0/G1 phase at 2 uM after 48 hrs by flow cytometry (Rvb=60.55%); type: functional
PC-3 [19] = assay: Cell cycle arrest in human PC3 cells assessed as accumulation at G2/M phase at 4 uM after 48 hrs by flow cytometry (Rvb=16.72%); type: functional

Structure (SMILES) | IC50 (HepG2 [1]) [µM] | IC50 (A549 [2]) [µM] | IC50 (PC-3 [3]) [µM] | IC50 (MCF7) [µM] | further results
COc1ccc(C(=O)C2Sc3nnc(-c4cc(OC)c(OC)c(OC)c4)n3NC2c2ccco2)cc1 (centres undefined) | > 100 | > 100 | > 100 | > 100 | –
COc1cc(C(=O)C2Sc3nnc(-c4cc(OC)c(OC)c(OC)c4)n3NC2c2ccco2)cc(OC)c1OC (centres undefined) | > 100 | 48.3 | 52.2 | > 100 | –
COc1cc(-c2nnc3n2NC(c2ccco2)C(C(=O)c2ccccc2C)S3)cc(OC)c1OC (centres undefined) | 63 | 80 | 88.4 | 69.9 | –
COc1cc(-c2nnc3n2NC(c2ccco2)C(C(=O)c2cccs2)S3)cc(OC)c1OC (centres undefined) | 64.1 | 78.7 | 46.2 | > 100 | –
COc1cc(-c2nnc3n2NC(c2ccco2)C(C(=O)c2ccc(C)cc2)S3)cc(OC)c1OC (centres undefined) | 17.4 | > 100 | 7.5 | > 100 | Ratio IC50 (PC-3 [4]): 3; Ratio IC50 (HepG2 [5]): 2.7
COc1cc(-c2nnc3n2NC(c2ccco2)C(C(=O)c2ccc(O)cc2)S3)cc(OC)c1OC (centres undefined) | > 100 | 93.4 | 38.3 | 88.9 | –
COc1cc(-c2nnc3n2NC(c2ccco2)C(C(=O)c2ccc(-c4ccccc4)cc2)S3)cc(OC)c1OC (centres undefined) | > 100 | > 100 | 45.9 | > 100 | –
COc1cc(-c2nnc3n2NC(c2ccco2)C(C(=O)c2ccc([N+](=O)[O-])cc2)S3)cc(OC)c1OC (centres undefined) | 87.8 | > 100 | 27.9 | > 100 | Ratio IC50 (PC-3 [4]): 0.62
COc1cccc(C(=O)C2Sc3nnc(-c4cc(OC)c(OC)c(OC)c4)n3NC2c2ccco2)c1 (centres undefined) | > 100 | > 100 | 84.6 | > 100 | –
COc1cc(-c2nnc3n2NC(c2ccco2)C(C(=O)c2ccc(Br)cc2)S3)cc(OC)c1OC (centres undefined) | > 100 | 42.1 | 36.4 | > 100 | Ratio IC50 (PC-3 [4]): 0.62
COc1cc(-c2nnc3n2NC(c2ccco2)C(C(=O)c2cccc(Br)c2)S3)cc(OC)c1OC (centres undefined) | > 100 | 36.9 | 63.9 | 91.8 | –
COc1cc(-c2nnc3n2NC(c2ccco2)C(C(=O)c2ccccc2)S3)cc(OC)c1OC (centres undefined) | 90.9 | 33.4 | 64.3 | 39.8 | –
COc1cc(-c2nnc3n2NC(c2ccco2)C(C(=O)c2ccc(F)cc2)S3)cc(OC)c1OC (centres undefined) | > 100 | 53.7 | 27.7 | > 100 | Ratio IC50 (PC-3 [4]): 0.62
O=c1[nH]cc(F)c(=O)[nH]1 [FLUOROURACIL] | – | 22.3 | 22.6 | 19.4 | –
COc1cc(-c2nnc3n2NC(c2ccco2)C(C(=O)C2CC2)S3)cc(OC)c1OC (centres undefined) | > 100 | > 100 | 95.2 | > 100 | –
COc1cc(-c2nnc3n2NC(c2ccco2)C(C(=O)c2ccccc2F)S3)cc(OC)c1OC (centres undefined) | > 100 | 78.7 | > 100 | 94.8 | –
COc1cc(-c2nnc3n2NC(c2cccs2)C(C(=O)c2ccc(F)cc2)S3)cc(OC)c1OC (centres undefined) | 54.2 | 45 | 27.4 | 43.6 | –
COc1cc(-c2nnc3n2NC(c2cccs2)C(C(=O)c2ccc(Cl)cc2)S3)cc(OC)c1OC (centres undefined) | 13.2 | 20.1 | 32.5 | 42.8 | –
COc1cc(-c2nnc3n2NC(c2cccs2)C(C(=O)c2ccc(C)cc2)S3)cc(OC)c1OC (centres undefined) | 3.7 | 12.7 | 5.09 | 28.4 | Activity (PC-3 [6]): 65.1%; Activity (PC-3 [7]): 23.69%; Activity (PC-3 [8]): 0.38%; Activity (PC-3 [9]): 47.22%; Activity (PC-3 [10]): 0.3%; Activity (PC-3 [11]): 29.4%; Activity (PC-3 [12]): 0.92%; Ratio IC50 (PC-3 [4]): 3; Activity (PC-3 [13]): 9.79%; Activity (PC-3 [14]): 15.52%; Activity (PC-3 [15]): Dose-dependent effect; Ratio IC50 (A549 [16]): 2; Activity (PC-3 [17]): 12.53%; Activity (PC-3 [18]): 33.85%; Activity (PC-3 [19]): 57%; Ratio IC50 (HepG2 [5]): 11
COc1cc(C(=O)C2Sc3nnc(-c4cc(OC)c(OC)c(OC)c4)n3NC2c2cccs2)cc(OC)c1OC (centres undefined) | > 100 | > 100 | > 100 | 71 | –
COc1ccc(C(=O)C2Sc3nnc(-c4cc(OC)c(OC)c(OC)c4)n3NC2c2cccs2)cc1 (centres undefined) | 68 | > 100 | 95.9 | 49.5 | –
COc1cc(-c2nnc3n2NC(c2ccco2)C(C(=O)c2ccco2)S3)cc(OC)c1OC (centres undefined) | > 100 | 68.7 | 58.3 | > 100 | –
COc1cc(-c2nnc3n2NC(c2cccs2)C(C(=O)c2ccccc2)S3)cc(OC)c1OC (centres undefined) | > 100 | 69.4 | 86.3 | > 100 | –
COc1cc(-c2nnc3n2NC(c2ccco2)C(C(=O)c2ccc(F)c(F)c2)S3)cc(OC)c1OC (centres undefined) | 52.4 | 93.7 | 36 | 73.2 | Ratio IC50 (PC-3 [4]): 0.62
COc1cc(-c2nnc3n2NC(c2ccco2)C(C(=O)c2ccc(Cl)cc2)S3)cc(OC)c1OC (centres undefined) | 78.6 | 51.4 | 67.8 | > 100 | –
COc1cc(-c2nnc3n2NC(c2ccco2)C(C(=O)c2cccc4ccccc24)S3)cc(OC)c1OC (centres undefined) | 33.9 | > 100 | > 100 | > 100 | –
COc1cc(-c2nnc3n2NC(c2ccco2)C(C(=O)c2ccc(C(F)(F)F)cc2)S3)cc(OC)c1OC (centres undefined) | > 100 | 37.1 | 77.5 | 33.6 | –
